Measured values as given in patent US8551489B2, “Methods for the treatment of cancers” (MUSC Foundation for Research Development, priority 2008, dated 2013).
“Also recorded” adds a separate entry of the source.

Key:
T24 cells = test: Western blot of FAK and ERK phosphorylation in T24 cells; format: cell-based, human; conditions: serum starved 12 hrs, treated 1 hr
Description: FIG. 6. Effect of TP receptor agonist (U46619) and antagonist (PTXA2) treatment on phosphorylation of FAK and ERK. T24 cells were serum starved for 12 hrs then treated with PTXA2 or U46619 for 1 hr. Tyrosine phosphorylation of FAK was assessed with western blot analysis on […] of cell lysate using anti-FAK pY397 (BD Bioscience) and pERK using a pERK specific antibody.
(§1) Tumor and normal bladder tissues were snap-frozen in liquid nitrogen within 30 minutes after the surgery. Frozen sections were stained with hematoxylin and eosin and samples identified that had at least 70% tumor cells were selected for further studies. Pulverized tissue powders were lysed in RIPA buffer (150 mM NaCl, 50 mM Tris-HCl [pH 8.0], 1% Triton X100, 0.1% SDS, 1% deoxycholate and protease inhibitor cocktail [Complete Protease Inhibitors, Roche]) for 15 minutes on ice. Equal amounts of total protein (40 μg) were resolved by 12% SDS-PAGE and subjected to Western blot analyses using ECL system (Amersham-Pharmacia). Screening Western blots for TP-α and TP-β isoform expression in bladder cancer cell lines was done using rabbit polyclonal antibodies against TP-α or TP-β (described above). SVHUC cells stably transfected with TP-α or TP-β plasmids were screened for PCNA, tubulin, GAPDH, FAK, pFAK, ERK, pERK protein (Santa Cruz) and ICAM-1 (Abcam).

SV-HUC cells = test: Western blot of FAK and ERK phosphorylation in SV-HUC cells; format: cell-based, human; conditions: SV-HUC cells (TP-α expressor), not transfected
Description: as §1

TP-β = target: T1, TP-β (Homo sapiens, UniProt P21731); test: Phosphorylation of ERK and FAK in SV-HUC cells transfected with TP-β; format: cell-based
T1 construct: expressed in transfected cells
T1 sequence (P21731 1-407 isoform P21731-2): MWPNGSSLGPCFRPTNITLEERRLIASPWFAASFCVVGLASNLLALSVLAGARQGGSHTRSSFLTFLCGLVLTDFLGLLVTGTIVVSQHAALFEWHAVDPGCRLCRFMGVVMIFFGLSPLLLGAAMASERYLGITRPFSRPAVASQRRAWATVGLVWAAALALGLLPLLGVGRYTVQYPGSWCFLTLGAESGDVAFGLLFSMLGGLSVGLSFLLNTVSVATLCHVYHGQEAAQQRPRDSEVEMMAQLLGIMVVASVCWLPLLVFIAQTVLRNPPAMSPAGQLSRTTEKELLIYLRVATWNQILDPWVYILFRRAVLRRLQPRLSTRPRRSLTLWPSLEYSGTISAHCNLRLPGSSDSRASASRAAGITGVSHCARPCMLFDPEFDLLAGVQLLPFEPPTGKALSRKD
Description: FIG. 7. Effects of U46619 and PTXA2 on phosphorylation of ERK and FAK. SV-HUC cells transfected with pcDNA3, TP-α or TP-β data are representative of 3 experiments.
as §1
SV-HUC cells were grown to 80% confluence and transfected with 2 μg of pcDNA3 vector encoding either the TP-α or TP-β receptor isoforms. Transfection was performed in 6-well plates using the Fugene reagent (Roche) according to the manufacturer's instructions. After 72 hours post-transfection, cells were selected with 500 μg/ml G418 (Roche) and stable pools isolated after 14 days.

PTN mRNA = PTN mRNA expression after receptor antagonist / agonist; format: cell-based; conditions: incubation with receptor antagonist
Excerpt: FIGS. 14A-F. TP-β regulation of pleiotrophin (PTN). […] (FIG. 14D) PTN mRNA reduction after PTXA2 treatment. The PTN mRNA levels are restored following the co-treatment with U46619. (FIG. 14E) shRNAi mediated knockdown of β-arrestin-2 reduced agonist dependent increase in PTN mRNA in HT-1376 cells (PTEN:wt), and UM-UC-3 cells (PTEN:minus). (FIG. 14F) Effect of U46619 on JNK1/2 and FOXO3a phosphorylation.

With `CCCCC[C@@H](O)/C=C/[C@H]1C[C@H]2C[C@@H]([C@@H]1C/C=C\CCCC(=O)O)C2(C)C` [PTXA2] the “phospho-ERK and phospho-FAK levels” value (T24 cells) was “reduction in the elevated basal levels; also recorded: significantly reduced”, the “phospho-ERK and phospho-FAK levels” value (SV-HUC cells) was “no effect” and the “U46619-stimulated increase in pERK1/2 and pFAK” value (TP-β; SV-HUC cells transfected with TP-β, antagonist added) was “blocked”. The “basal levels of pFAK and pERK” value (TP-β; TP-β transfected SV-HUC cells, data not shown) was “decreased the basal levels” and the “PTN mRNA expression” value (PTN mRNA) was “reduced PTN mRNA expression”.
